Reference: US8961931B2, “18F-labeled monomeric galactose derivative used as tomography probe” (Institute of Nuclear Energy Research, Atomic Energy Council, priority 2011, dated 2015)

System: liver
Test: DMN-induced liver fibrosis, H & E and Masson's trichrome staining
Assay type: in vivo, mouse
Method: Please refer to FIG. 6, which is a view showing liver fibrosis of mice dyed through H & E and Masson methods. As shown in the figures, dimethylnitrosamine (DMN) is used to induce liver fibrosis. 12 mice are randomly divided into two groups each having 6 mice. One is an experimental group and the other is a control group. Mice in the experimental group are injected with 10 mg·kg of DMN for 3 continuous days in a week, and this process lasts for four weeks. Mice in the control group are injected with the same amount of normal saline diluted into a density of 10 mg/ml. During the time for inducing liver fibrosis, all mice are fed with food and water normally. Four days after injecting DMN the final time, dyeing methods of H & E and Masson's are used to examine sliced tissues of mouse bodies for confirming DMN's ability on inducing liver fibrosis of the mice.
For examining the tissues, the mice are sacrificed by blowing high-density CO2 for the mice to breathe in at first. Then, the livers are taken out to sink left lateral lobe in 4% pH 7.4 phosphate-buffered paraformaldehyde. After being paraffin-embedded for 24 hrs, 4 μm of each tissue is taken.
The tissues are examined for their morphological changes through methods of Hematoxylin and Eosin stains and then Masson's trichrome is used to examine statuses of liver fibrosis. […]

CN(C)N=O [DMN, dimethylnitrosamine]
average weight of mouse having fibrosis liver relative to normal mouse (DMN 3 continuous days a week for four weeks): 92% | Masson's trichrome staining of liver tissue (four days after final DMN injection): show blue color on fibrosis tissues
